# Laboratory results reported in PubChem BioAssay (NCI).
#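 Five concentrations, 48 hours, 96-well plates. GI50 is the concentration that inhibits growth by half. TGI marks complete inhibition of growth.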
# Tests used:
# Experiment in all cases: growth of human tumour cells (NCI), 48 h
# [1] = system: SW-620 colon
# [2] = system: M14 melanoma
# [3] = system: RPMI-8226 leukemia
# [4] = system: HCC-2998 colon
# [5] = system: CAKI-1 renal
# [6] = system: HCT-15 colon
# [7] = system: HCT-116 colon
# [8] = system: MDA-N
# [9] = system: U251 CNS
# [10] = system: HOP-62 NSCLC
# [11] = system: SK-MEL-2 melanoma
# [12] = system: SK-OV-3 ovarian
# [13] = system: CCRF-CEM leukemia
# [14] = system: DU-145 prostate
# [15] = system: SN12C renal
# [16] = system: NCI/ADR-RES ovarian
# [17] = system: SR leukemia
# [18] = system: OVCAR-5 ovarian
# [19] = system: SF-295 CNS
# [20] = system: SF-539 CNS
# [21] = system: NCI-H460 lung
# [22] = system: HL-60(TB) leukemia
# [23] = system: TK-10 renal
# [24] = system: UO-31 renal
# [25] = system: EKVX NSCLC
# [26] = system: NCI-H522 lung
# [27] = system: MDA-MB-435
# [28] = system: SNB-75 CNS
# [29] = system: SK-MEL-5 melanoma
# [30] = system: SF-268 CNS
# [31] = system: UACC-62 melanoma
# [32] = system: K-562 leukemia
# [33] = system: NCI-H226 lung
# [34] = system: T-47D breast
# [35] = system: PC-3 prostate
# [36] = system: KM12 colon
# [37] = system: LOX IMVI melanoma
# [38] = system: MCF7 breast
# [39] = system: BT-549 breast
# [40] = system: ACHN renal
# [41] = system: MOLT-4 leukemia
# [42] = system: A549 NSCLC
# [43] = system: OVCAR-3 ovarian
# [44] = system: OVCAR-8 ovarian
# [45] = system: IGROV1 ovarian
# [46] = system: MDA-MB-231 breast
# [47] = system: SK-MEL-28 melanoma
# [48] = system: COLO 205 colon
# [49] = system: HT29 colon
# [50] = system: NCI-H23 lung
# [51] = system: MALME-3M melanoma
# [52] = system: HS 578T breast
# [53] = system: UACC-257 melanoma
# [54] = system: SNB-19 CNS
# [55] = system: 786-0 renal
# [56] = system: A498 renal
# [57] = system: HOP-92 NSCLC
# [58] = system: RXF 393 renal
# [59] = system: OVCAR-4 ovarian
structure (smiles),measurement,setting,value
S=CN1CCCCC1,TGI,[1],> 100 µM
same,TGI,[2],> 100 µM
same,TGI,[3],> 100 µM
same,TGI,[4],> 100 µM
same,TGI,[5],> 100 µM
same,TGI,[6],> 100 µM
same,TGI,[7],> 100 µM
same,TGI,[8],> 100 µM
same,TGI,[9],> 100 µM
same,TGI,[10],> 100 µM
same,TGI,[11],> 100 µM
same,TGI,[12],> 100 µM
same,TGI,[13],> 100 µM
same,TGI,[14],> 100 µM
same,TGI,[15],> 100 µM
same,TGI,[16],> 100 µM
same,TGI,[17],> 100 µM
same,TGI,[18],> 100 µM
same,TGI,[19],> 100 µM
same,TGI,[20],> 100 µM
same,TGI,[21],> 100 µM
same,TGI,[22],> 100 µM
same,TGI,[23],> 100 µM
same,TGI,[24],> 100 µM
same,TGI,[25],> 100 µM
same,TGI,[26],> 100 µM
same,TGI,[27],> 100 µM
same,TGI,[28],> 100 µM
same,TGI,[29],> 100 µM
same,TGI,[30],> 100 µM
same,TGI,[31],> 100 µM
same,TGI,[32],> 100 µM
same,TGI,[33],> 100 µM
same,TGI,[34],> 100 µM
same,TGI,[35],> 100 µM
same,TGI,[36],> 100 µM
same,TGI,[37],> 100 µM
same,TGI,[38],> 100 µM
same,TGI,[39],> 100 µM
same,TGI,[40],> 100 µM
same,TGI,[41],> 100 µM
same,TGI,[42],> 100 µM
same,TGI,[43],> 100 µM
same,TGI,[44],> 100 µM
same,TGI,[45],> 100 µM
same,TGI,[46],> 100 µM
same,TGI,[47],> 100 µM
same,TGI,[48],> 100 µM
same,TGI,[49],> 100 µM
same,TGI,[50],> 100 µM
same,TGI,[51],> 100 µM
same,TGI,[52],> 100 µM
same,TGI,[53],> 100 µM
same,TGI,[54],> 100 µM
same,TGI,[55],> 100 µM
same,TGI,[56],> 100 µM
CC(C)(C)[OH+][O-].[O-]c1ccc(Cl)cc1C=Nc1ccc(Cl)cc1[O-].[O]=[V],GI50,[1],19.6 µM
same,TGI,[1],41.7 µM
same,GI50,[2],13.3 µM
same,TGI,[2],76.2 µM
same,GI50,[3],6.97 µM
same,TGI,[3],> 100 µM
same,GI50,[4],11.2 µM
same,TGI,[4],25.7 µM
same,GI50,[5],15.1 µM
same,TGI,[5],52.5 µM
same,GI50,[57],28.7 µM
same,TGI,[57],> 100 µM
same,GI50,[6],21.8 µM
same,TGI,[6],> 100 µM
same,GI50,[7],21.4 µM
same,TGI,[7],98.9 µM
same,GI50,[8],7.92 µM
same,TGI,[8],> 100 µM
same,GI50,[9],20.2 µM
same,TGI,[9],69.2 µM
same,GI50,[10],23.7 µM
same,TGI,[10],74.1 µM
same,GI50,[11],11.5 µM
same,TGI,[11],28.2 µM
same,GI50,[12],19.6 µM
same,TGI,[12],46.6 µM
same,GI50,[13],3.93 µM
same,TGI,[13],35.3 µM
same,GI50,[14],16.5 µM
same,TGI,[14],54.2 µM
same,GI50,[15],24.2 µM
same,TGI,[15],> 100 µM
same,GI50,[16],29.1 µM
same,TGI,[16],> 100 µM
same,GI50,[17],7.79 µM
same,TGI,[17],> 100 µM
same,GI50,[18],18.4 µM
same,TGI,[18],47.3 µM
same,GI50,[58],17.3 µM
same,TGI,[58],36.6 µM
same,GI50,[19],10.7 µM
same,TGI,[19],33.5 µM
same,GI50,[20],17.8 µM
same,TGI,[20],32.5 µM
same,GI50,[21],18 µM
same,TGI,[21],46.3 µM
same,GI50,[22],24.7 µM
same,TGI,[22],> 100 µM
same,GI50,[23],13.8 µM
same,TGI,[23],73.7 µM
same,GI50,[24],13.2 µM
same,TGI,[24],70.6 µM
same,GI50,[25],2.84 µM
same,TGI,[25],18.1 µM
same,GI50,[26],9.12 µM
same,TGI,[26],25.1 µM
same,GI50,[27],14.6 µM
same,TGI,[27],> 100 µM
same,GI50,[28],12.1 µM
same,TGI,[28],30.8 µM
same,GI50,[29],13 µM
same,TGI,[29],26.3 µM
same,GI50,[30],23.7 µM
same,TGI,[30],69.3 µM
same,GI50,[31],10.7 µM
same,TGI,[31],37.5 µM
same,GI50,[32],31.5 µM
same,TGI,[32],> 100 µM
same,GI50,[34],11.9 µM
same,TGI,[34],98.7 µM
same,GI50,[35],26.1 µM
same,TGI,[35],> 100 µM
same,GI50,[36],10.8 µM
same,TGI,[36],32 µM
same,GI50,[37],5.9 µM
same,TGI,[37],25.9 µM
same,GI50,[38],11.4 µM
same,TGI,[38],30 µM
same,GI50,[39],13.2 µM
same,TGI,[39],28.6 µM
same,GI50,[40],16.2 µM
same,TGI,[40],48 µM
same,GI50,[41],17.5 µM
same,TGI,[41],> 100 µM
same,GI50,[42],17.1 µM
same,TGI,[42],> 100 µM
same,GI50,[43],13.5 µM
same,TGI,[43],40.5 µM
same,GI50,[44],23 µM
same,TGI,[44],> 100 µM
same,GI50,[45],0.542 µM
same,TGI,[45],14.2 µM
same,GI50,[46],29.9 µM
same,TGI,[46],> 100 µM
same,GI50,[47],19.2 µM
same,TGI,[47],53.8 µM
same,GI50,[48],19.3 µM
same,TGI,[48],37.6 µM
same,GI50,[49],21.9 µM
same,TGI,[49],67.3 µM
same,GI50,[50],20.4 µM
same,TGI,[50],66.9 µM
same,GI50,[51],1.81 µM
same,TGI,[51],11.9 µM
same,GI50,[52],19.4 µM
same,TGI,[52],52.6 µM
same,GI50,[53],13.9 µM
same,TGI,[53],36.4 µM
same,GI50,[54],25.1 µM
same,TGI,[54],66.2 µM
same,GI50,[55],3.73 µM
same,TGI,[55],27.1 µM
same,GI50,[56],27.7 µM
same,TGI,[56],64.2 µM
C=C(O)c1ccccc1C#Cc1ccccc1C(=O)OC,TGI,[1],> 10 µM
same,TGI,[2],> 10 µM
same,TGI,[3],> 10 µM
same,TGI,[4],> 10 µM
same,TGI,[5],> 10 µM
same,TGI,[6],> 10 µM
same,TGI,[7],> 10 µM
same,TGI,[8],> 10 µM
same,TGI,[9],> 10 µM
same,TGI,[10],> 10 µM
same,TGI,[11],> 10 µM
same,TGI,[12],> 10 µM
same,TGI,[13],> 10 µM
same,TGI,[14],> 10 µM
same,TGI,[15],> 10 µM
same,TGI,[16],> 10 µM
same,TGI,[17],> 10 µM
same,TGI,[18],> 10 µM
same,TGI,[58],> 10 µM
same,TGI,[19],> 10 µM
same,TGI,[20],> 10 µM
same,TGI,[21],> 10 µM
same,TGI,[22],> 10 µM
same,TGI,[23],> 10 µM
same,TGI,[24],> 10 µM
same,TGI,[25],> 10 µM
same,TGI,[26],> 10 µM
same,TGI,[27],> 10 µM
same,TGI,[28],> 10 µM
same,TGI,[29],> 10 µM
same,TGI,[30],> 10 µM
same,TGI,[31],> 10 µM
same,TGI,[32],> 10 µM
same,TGI,[33],> 10 µM
same,TGI,[34],> 10 µM
same,TGI,[59],> 10 µM
same,TGI,[35],> 10 µM
same,TGI,[36],> 10 µM
same,TGI,[37],> 10 µM
same,TGI,[38],> 10 µM
same,TGI,[39],> 10 µM
same,TGI,[40],> 10 µM
same,TGI,[41],> 10 µM
same,TGI,[42],> 10 µM
same,TGI,[43],> 10 µM
same,TGI,[44],> 10 µM
same,TGI,[45],> 10 µM
same,TGI,[46],> 10 µM
same,TGI,[47],> 10 µM
same,TGI,[48],> 10 µM
same,TGI,[49],> 10 µM
same,TGI,[50],> 10 µM
same,TGI,[51],> 10 µM
same,TGI,[52],> 10 µM
same,TGI,[53],> 10 µM
same,TGI,[54],> 10 µM
same,TGI,[55],> 10 µM
same,TGI,[56],> 10 µM
